Three molecules from article PMC6792350 (Environmental Health Perspectives, 2019) can be followed below.

A short description of data set [1]: Cumulative urinary excretion after IV and oral dosing in piglets. As to conditions: for fraction of parent dose recovered in urine as glucuronide, mean±SD / fraction of parent dose recovered in urine as glucuronide, range: by 24 h.
Method: Blood samples were collected in heparinized polypropylene tubes, immediately chilled in ice and centrifuged for 10 min at 3,000×g at 4°C, and the supernatant plasma was stored in polypropylene tubes at −20°C until assay. Total urine was filtered through a nylon mesh ( 250μm ) and collected in glass containers and chilled in ice. The volume of each urine sample and the sampling time were recorded. A urine sample was immediately chilled in ice and centrifuged for 10 min at 3,000×g at 4°C and stored at −20°C until assayed.
Analytes were quantified by Acquity UPLC-MS/MS (Waters Corporation).
All TK analyses were performed using the Phoenix® NLME (version 8.0; Pharsight Corporation). The plasma mass concentrations were converted into molar concentrations before analysis.
The nature of data set [2]: Noncompartmental toxicokinetic analysis of plasma after oral (gavage) dosing in piglets. The note with it: plasma, mean±SD; for Cmax/dose: oral BPA 438 or 200 μmol/kg (n=12) or oral BPS 40 or 200 μmol/kg (n=10); for AUClast/dose / Tmax: oral BPA or BPS dosing. Here is the method:
Table 1 summarizes the protocol of the experiments and the plasma and urine datasets further considered for TK analyses.
For administrations by gavage, BPA powder was dissolved in ethanol–corn oil (1:9, vol:vol) at 100mg/mL (Exp. 1).
(§1) The plasma analytes concentration–time data from individual piglets were used to derive the maximum concentration (Cmax), and the time to maximum concentration (Tmax). The area under the plasma concentration–time curves from dosing time to the time of the last measurable concentration ( AUC0–tlast ) were calculated using the linear trapezoidal rule (Equation 1). (1) AUC0–tlast=∑0tlast(Ci−1+Ci/2)×(ti−ti−1) where Ci is the concentration obtained at the time i ( ti ).
(§2) The area under the plasma concentration time curve from t=0 to infinity ( AUC0–inf ) was obtained using Equation 2. (2) AUC0–inf=AUC0–tlast+AUCtlast–inf where AUCtlast–inf is the area extrapolated from the last observation to infinity, calculated according to Equation 3: (3) AUCtlast–inf=Clast/λz where Clast is the last observed quantifiable plasma concentration, and λz is the slope of the terminal phase, as estimated by linear regression using the best fit option of Phoenix®.

A short description of data set [3]: Population semiphysiologically based 9-compartment TK model (NLME) of plasma and urine data in piglets. As to conditions: for tvK25, rate constant liver to plasma for the glucuronide, Mean / tvK50, glucuronide elimination rate constant from plasma to urine, Mean / tvK56, distribution rate constant, Mean / tvK65, distribution rate constant, Mean / tvK105, rate constant of glucuronide formed by enterocytes absorbed into the systemic circulation, Mean / tvV, volume of the central compartment, Mean: bootstrap mean; for tvK25, rate constant liver to plasma for the glucuronide, Median / tvK50, glucuronide elimination rate constant from plasma to urine, Median / tvK56, distribution rate constant, Median / tvK65, distribution rate constant, Median / tvK105, rate constant of glucuronide formed by enterocytes absorbed into the systemic circulation, Median / tvV, volume of the central compartment, Median: bootstrap median; for mean volume of the central compartment: pig, in vivo; for tvV, volume of the central compartment, Mean / tvV, volume of the central compartment, Median: population primary parameter. Here is the method: The NLME model was therefore developed by combining the plasma and urinary data sets from the five TK experiments carried out in piglets, except for the urinary BPA concentration obtained after oral administration of BPA.
Different compartmental models and submodels were tested and compared using the likelihood ratio test (LRT). The primary parameters of the model, namely the volumes of distribution ( VBPA , VBPAG , VBPS , VBPSG ) and the first-order rate constants ( Kij ) and their associated precisions [standard error (SE)] were estimated by minimizing an objective function value (OFV) expressed as minus twice the log of the likelihood estimation ( −2LL ).
The between-subject variability (BSV) of the parameters was evaluated using the exponential model θparameter_i=θtv_parameter×exp(ηi) , where θparameter_i is the parameter estimated for the i^th individual, θtv_parameter is the typical population value of the parameter, and ηi is the deviation associated with the i^th individual from the corresponding value of the parameter at the population level. The distribution of ηi was assumed to be normal with a mean of 0 and a variance ω² . The BSV was reported as a coefficient of variation (CV) in the original scale CV(%)=100× exp (ω^2)−1 .
The residual variance was modeled using a combined additive and proportional error model Cobsij=Cpredij(1+ε1ij)+ε2ij where Cobsij and Cpredij are respectively the j^th observed and predicted concentrations for the i^th individual and ε1ij and ε2ij the multiplicative and additive residual errors.
The bootstrap tool (20 replicates) was used to evaluate the mean, median, SE, and coefficient of variation of the parameter estimates. The predictive ability of the model was checked graphically by plotting Visual Predictive Check plots to compare the observed data with the selected quantiles (here 20th, 50th and 80th percentiles) of data simulated using the model and obtained from 200–1,000 replicates from each animal based on the structure of the original data (i.e., dosing, timing and number of samples).
For the LRT test, the critical value of the χ^2 distribution considered for a given nominal risk and a given number of degrees of freedom was obtained using the Excel function CHISQ.INV.RT().
Figure 1. Schematic representation of the compartmental model. […] The link between the two central compartments was modeled with a compartment (CP2) that should be viewed as the liver. […] The fraction of absorbed BPA that is not hepatically transformed reaches the CP3 via K23 . The exchanges between CP2 and CP3 are bilateral, K32 being the rate constant between CP3 and CP2 and K23 the rate constant between CP2 and CP3. […] It was assumed that no phase-two metabolite other than BPAG (BPSG) was formed.
(12) Bioavailability=K12/K12+K110+K10×(1−K25/K25+K23) with K10 , K12 , K110 , K23; K25 as defined above.

The nature of data set [4]: Noncompartmental toxicokinetic analysis of plasma after IV dosing in piglets. As to conditions: for time after which plasma concentrations were below the LOQ: after IV BPA and BPS administration; for time of maximal plasma glucuronide concentration: after IV BPA and BPS dosing; for Cmax/dose / AUC0-tlast/dose / Tmax: plasma, mean±SD; for Cmax/dose: IV BPA 21.9 or 20 μmol/kg (n=15) or IV BPS 20 μmol/kg (n=16), glucuronides after parent dosing; for AUC0-tlast/dose: IV BPA or BPS dosing; for Tmax: glucuronide after IV BPA or BPS dosing. Here is the method: Table 1 summarizes the protocol of the experiments and the plasma and urine datasets further considered for TK analyses. A first experiment (Exp. 1) was performed in 8 male piglets age 42 d ( 20.8±1.6kg BW) to investigate oral BPA TK. […] BPA data obtained after IV BPA administrations had already been used to evaluate human BPA clearance using an allometric approach ([Collet et al. 2015]).
For the IV administrations, BPA powder was dissolved in ethanol–propylene glycol (1:49, vol:vol) at 50mg/mL (Exp.1 and 2) and in ethanol–saline (1:2, vol:vol) at 23mg/mL (Exp. 5).
During the first 24 h of sampling, the piglets were housed individually in stainless steel cages.
as §1, §2

Where [5] appears, read: IV BPA (n=7) or IV BPS (n=16) dosing.
Setting [6] is: oral BPA (n=4) or oral BPS (n=10) dosing.

Regarding `O=S(=O)(c1ccc(O)cc1)c1ccc(O)cc1` [BPS, bisphenol S], the “part of the dose eliminated in urine” value in data set [1] (3 h after dosing) is “About half”. For the same molecule, in data set [1] (IV BPA and BPS doses), the “unconjugated compound in urine, fraction of IV dose” value is 0.027±0.0084%.

As to `O=C([O-])[C@H]1O[C@@H](Oc2ccc(S(=O)(=O)c3ccc(O)cc3)cc2)[C@H](O)[C@@H](O)[C@@H]1O.[Na+]` [BPSG, Bis(4-hydroxyphenyl) Sulfone O-β-D-Glucuronide-Sodium Salt], in data set [1] (24 h post dosing, IV BPSG), the “fraction of the IV BPSG dose recovered in urine, range” value was 40.1–69.8% and the “mean fraction of the IV BPSG dose recovered in urine” value was 59.0±9.96%. Moreover, the “fraction of parent dose recovered in urine as glucuronide, mean±SD” value (“fraction of parent dose recovered … mean±SD” below) in data set [1] (setting [5]) is 76.8±20.1%. In data set [1] (IV BPA or BPS dosing), the “fraction of parent dose recovered in urine as glucuronide, range” value (“fraction of parent dose recovered … range” for short) is reported as 36.3–107.9%. The “fraction of parent dose recovered … mean±SD” value in data set [1] (setting [6]) is 86.5±23.9%. The “fraction of parent dose recovered … range” value in data set [1] (oral BPA or BPS dosing) is 65.5–126.8%. In data set [2], the Cmax/dose was 2.94±4.78 μmol/L per μmol/kg BW, the AUClast/dose is 2.87±0.99 μmol×h/L per μmol/kg BW and the Tmax stood at 43.8 ± 18 min. Moreover, in data set [3], the “tvK25, rate constant liver to plasma for the glucuronide, Mean” value was found to be 66.6 h⁻¹; the “tvK50, glucuronide elimination rate constant from plasma to urine, Mean” value was determined as 1.818 h⁻¹; the “tvK56, distribution rate constant, Mean” value worked out at 0.730 h⁻¹; the “tvK65, distribution rate constant, Mean” value turned out to be 0.006 h⁻¹. For the same molecule, in data set [3], the “tvK105, rate constant of glucuronide formed by enterocytes absorbed into the systemic circulation, Mean” value was found to be 0.534 h⁻¹; the “tvK25, rate constant liver to plasma for the glucuronide, Median” value stood at 62.147 h⁻¹; the “tvK50, glucuronide elimination rate constant from plasma to urine, Median” value is 1.832 h⁻¹; the “tvK56, distribution rate constant, Median” value worked out at 0.655 h⁻¹. Also, in data set [3], the “tvK65, distribution rate constant, Median” value was 0.006 h⁻¹; the “tvK105, rate constant of glucuronide formed by enterocytes absorbed into the systemic circulation, Median” value came out at 0.523 h⁻¹; the “mean volume of the central compartment” value was 0.14 L/kg; the “tvV, volume of the central compartment, Mean” value is listed as 0.135 L/kg. In addition, in data set [3], the “tvV, volume of the central compartment, Median” value is 0.137 L/kg. In data set [4], the “time after which plasma concentrations were below the LOQ” value is 8 to 12 h, the “time of maximal plasma glucuronide concentration” value was “about 20 min”, the Cmax/dose is 2.55±0.58 μmol/L per μmol/kg BW and the AUC0-tlast/dose is on record as 2.59±0.77 μmol×h/L per μmol/kg. Further, in data set [4], the Tmax worked out at 17.4 ± 11.4 min.

As for `CC(C)(c1ccc(O)cc1)c1ccc(O[C@@H]2O[C@H](C(=O)O)[C@@H](O)[C@H](O)[C@H]2O)cc1` [BPAG, Bisphenol A glucuronide], the “fraction of parent dose recovered … mean±SD” value in data set [1] (setting [5]) is given as 97.0±27.6%. For the same molecule, in data set [1] (IV BPA or BPS dosing), the “fraction of parent dose recovered … range” value is recorded as 63.1–135.7%. Also, the “fraction of parent dose recovered … mean±SD” value in data set [1] (setting [6]) is 62.2±15.8%. Moreover, in data set [1] (oral BPA or BPS dosing), the “fraction of parent dose recovered … range” value is 49.5–80.2%. In data set [2], the Cmax/dose was 0.58±0.34 μmol/L per μmol/kg BW, the AUClast/dose is 1.75±0.73 μmol×h/L per μmol/kg BW and the Tmax is 74.4 ± 64.2 min. In addition, in data set [3], the “tvK25, rate constant liver to plasma for the glucuronide, Mean” value amounted to 137.08 h⁻¹; the “tvK50, glucuronide elimination rate constant from plasma to urine, Mean” value was determined as 2.750 h⁻¹; the “tvK56, distribution rate constant, Mean” value came out at 1.45 h⁻¹; the “tvK65, distribution rate constant, Mean” value was 0.015 h⁻¹. In data set [3], the “tvK105, rate constant of glucuronide formed by enterocytes absorbed into the systemic circulation, Mean” value was 0.207 h⁻¹; the “tvK25, rate constant liver to plasma for the glucuronide, Median” value is 91.87 h⁻¹; the “tvK50, glucuronide elimination rate constant from plasma to urine, Median” value came out at 2.547 h⁻¹; the “tvK56, distribution rate constant, Median” value worked out at 1.45 h⁻¹. For the same molecule, in data set [3], the “tvK65, distribution rate constant, Median” value is 0.015 h⁻¹; the “tvK105, rate constant of glucuronide formed by enterocytes absorbed into the systemic circulation, Median” value stood at 0.217 h⁻¹; the “mean volume of the central compartment” value is listed as 0.11 L/kg; the “tvV, volume of the central compartment, Mean” value worked out at 0.107 L/kg. Also, the “tvV, volume of the central compartment, Median” value in data set [3] is 0.112 L/kg. Moreover, in data set [4], the “time after which plasma concentrations were below the LOQ” value is 12 to 24 h, the “time of maximal plasma glucuronide concentration” value is “about 20 min”, the Cmax/dose is reported as 1.80±0.85 μmol/L per μmol/kg BW and the AUC0-tlast/dose was found to be 2.04±0.58 μmol×h/L per μmol/kg. Further, the Tmax in data set [4] turned out to be 21 ± 20.4 min.
